Results as given in ChEMBL document CHEMBL4002640, “Discovery of MK-1832, a Kv1.5 inhibitor with improved selectivity and pharmacokinetics” (Bioorg Med Chem Lett, 2017).

Tests used:
[1] = molecular target: Potassium voltage-gated channel subfamily A member 5 (Homo sapiens, UniProt P22460); test: Inhibition of Kv1.5 (unknown origin)
[2] = molecular target: KCNQ1/KCNE1 (IKs) (Homo sapiens, UniProt P15382+P51787); test: Inhibition of human KCNQ1/KCNE1 expressed in HEK293 cells assessed as reduction in slowly activating delayed rectifier cardiac potassium current at 10 uM by patch clamp electrophysiology method; format: cell-based; conditions: HEK293 cells expressing human KCNQ1/KCNE1
[3] = molecular target: Voltage-gated inwardly rectifying potassium channel KCNH2 (Homo sapiens, UniProt Q12809); test: Displacement of [3H]-MK499 from human ERG IKr channel expressed in HEK293 cell membranes
[4] = species: Homo sapiens; test: Substrate activity at human P-gp assessed as efflux ratio

Chain of Voltage-gated inwardly rectifying potassium channel KCNH2 (Q12809 whole entry): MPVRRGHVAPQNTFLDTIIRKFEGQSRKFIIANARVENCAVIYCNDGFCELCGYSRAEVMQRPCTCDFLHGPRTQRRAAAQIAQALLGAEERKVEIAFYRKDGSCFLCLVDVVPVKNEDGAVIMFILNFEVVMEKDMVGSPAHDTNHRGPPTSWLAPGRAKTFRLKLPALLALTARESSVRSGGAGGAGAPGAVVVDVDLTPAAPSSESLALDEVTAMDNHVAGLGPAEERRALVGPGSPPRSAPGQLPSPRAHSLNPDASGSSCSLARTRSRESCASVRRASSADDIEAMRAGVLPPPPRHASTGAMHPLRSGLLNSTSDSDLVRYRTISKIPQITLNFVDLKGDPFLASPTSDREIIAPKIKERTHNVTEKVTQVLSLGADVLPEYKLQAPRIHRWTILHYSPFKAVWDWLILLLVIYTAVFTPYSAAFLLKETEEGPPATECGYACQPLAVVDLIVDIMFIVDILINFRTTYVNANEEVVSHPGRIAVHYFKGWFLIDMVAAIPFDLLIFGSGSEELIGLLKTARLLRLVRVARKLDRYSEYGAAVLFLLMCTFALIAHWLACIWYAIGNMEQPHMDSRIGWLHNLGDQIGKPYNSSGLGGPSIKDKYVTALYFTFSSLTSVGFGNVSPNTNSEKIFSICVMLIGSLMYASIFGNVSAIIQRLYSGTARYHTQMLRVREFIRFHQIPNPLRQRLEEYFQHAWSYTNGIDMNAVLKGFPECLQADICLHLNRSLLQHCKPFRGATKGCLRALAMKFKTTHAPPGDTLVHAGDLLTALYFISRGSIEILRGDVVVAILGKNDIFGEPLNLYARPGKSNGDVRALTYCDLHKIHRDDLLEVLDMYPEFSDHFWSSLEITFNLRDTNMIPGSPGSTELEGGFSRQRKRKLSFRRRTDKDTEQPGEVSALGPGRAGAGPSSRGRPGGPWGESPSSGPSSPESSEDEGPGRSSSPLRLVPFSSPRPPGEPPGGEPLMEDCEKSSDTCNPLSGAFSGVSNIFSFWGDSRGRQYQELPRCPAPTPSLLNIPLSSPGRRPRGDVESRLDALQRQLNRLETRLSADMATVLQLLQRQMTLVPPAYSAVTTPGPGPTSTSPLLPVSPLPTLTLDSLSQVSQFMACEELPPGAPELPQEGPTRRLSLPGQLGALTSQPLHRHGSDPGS
Chain of Potassium voltage-gated channel subfamily A member 5 (P22460 whole entry): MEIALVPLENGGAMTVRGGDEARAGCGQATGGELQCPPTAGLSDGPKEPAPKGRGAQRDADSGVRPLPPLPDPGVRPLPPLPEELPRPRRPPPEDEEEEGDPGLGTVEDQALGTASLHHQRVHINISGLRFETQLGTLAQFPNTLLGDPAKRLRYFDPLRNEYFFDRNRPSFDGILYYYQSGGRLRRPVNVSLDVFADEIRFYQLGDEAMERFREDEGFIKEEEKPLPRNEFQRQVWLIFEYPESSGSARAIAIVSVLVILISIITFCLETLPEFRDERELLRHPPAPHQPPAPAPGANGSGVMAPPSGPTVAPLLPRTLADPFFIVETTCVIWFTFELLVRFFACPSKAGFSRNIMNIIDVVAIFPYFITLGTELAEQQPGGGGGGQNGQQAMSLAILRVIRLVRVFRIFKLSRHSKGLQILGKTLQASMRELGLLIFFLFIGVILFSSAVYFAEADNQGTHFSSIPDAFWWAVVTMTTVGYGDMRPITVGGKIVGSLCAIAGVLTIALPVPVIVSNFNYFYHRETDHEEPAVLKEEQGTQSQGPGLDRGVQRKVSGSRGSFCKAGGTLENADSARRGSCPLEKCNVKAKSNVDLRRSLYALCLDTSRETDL
Chain of KCNQ1/KCNE1 (IKs) (P51787 whole entry): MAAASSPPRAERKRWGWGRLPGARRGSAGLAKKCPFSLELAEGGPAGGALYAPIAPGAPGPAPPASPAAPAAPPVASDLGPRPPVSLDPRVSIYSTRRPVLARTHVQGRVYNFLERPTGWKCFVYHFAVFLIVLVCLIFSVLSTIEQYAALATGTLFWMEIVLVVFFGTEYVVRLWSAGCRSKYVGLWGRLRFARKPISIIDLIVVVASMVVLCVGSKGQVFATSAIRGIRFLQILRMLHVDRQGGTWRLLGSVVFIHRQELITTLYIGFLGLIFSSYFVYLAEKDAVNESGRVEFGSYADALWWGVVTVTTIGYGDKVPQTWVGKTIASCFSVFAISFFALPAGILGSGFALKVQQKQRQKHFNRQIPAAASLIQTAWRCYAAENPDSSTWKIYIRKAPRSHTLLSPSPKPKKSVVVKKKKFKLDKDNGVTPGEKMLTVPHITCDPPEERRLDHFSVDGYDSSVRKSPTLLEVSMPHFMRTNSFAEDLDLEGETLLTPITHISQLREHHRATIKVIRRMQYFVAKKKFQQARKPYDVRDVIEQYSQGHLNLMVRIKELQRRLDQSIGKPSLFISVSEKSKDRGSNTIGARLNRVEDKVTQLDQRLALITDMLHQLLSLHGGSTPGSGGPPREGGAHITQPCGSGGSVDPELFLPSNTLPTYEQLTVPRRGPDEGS

Row | IC50 [1] | inhibition at 10 µM [2] | Ratio [4] | Compound | IC50 [3]
1 | 137 nM | 9.2% |  | Cc1cc(F)ccc1-c1ccccc1C(C#N)C(c1cccnc1)c1cccnc1 (stereo unspecified) | 
2 |  | -0.5% | 28 | OC(c1cccnc1-c1ccccc1Cl)C(c1cccnc1)c1cccnc1 (stereo unspecified) | > 30000 nM
3 | 33 nM | 67% |  | FC(F)(F)Oc1cccc(-c2ncccc2CC(c2cccnc2)c2cccnc2)c1 | 12700 nM
4 | 1390 nM |  |  | c1ccc(-c2ccccc2CC(c2cccnc2)c2cccnc2)cc1 | 7620 nM
5 | 62 nM | 57% |  | Nc1cccc(C(Cc2cccnc2-c2cc(Cl)cc(Cl)c2)c2cccnc2)n1 (stereo unspecified) | 10200 nM
6 | 41 nM | 15% |  | COc1cccc(-c2ncccc2CC(c2cccnc2)c2cccnc2)c1 | 
7 | 233 nM |  | 1.1 | OC(c1cccnc1-c1cc(Cl)cc(Cl)c1)C(c1cccnc1)c1ccccn1 (mixture of isomers) | > 30000 nM
8 | 90 nM | 5% |  | CN(c1cccnc1)c1ncccc1CC(c1cccnc1)c1cccnc1 | > 30000 nM
9 | 161 nM | 61% |  | CN(C)C(=O)c1cccc(-c2ncccc2CC(c2ccnc(N)n2)c2cccnc2F)c1 (racemic) | > 30000 nM
10 | 2860 nM |  |  | N#Cc1cccc(-c2cccc(Cl)c2CC(c2cccnc2)c2cccnc2)c1 | 2560 nM
11 | 444 nM |  |  | c1cncc(C(Cc2ccccc2-c2ccncc2)c2cccnc2)c1 | 22100 nM
12 | 579 nM | 42% |  | CS(=O)(=O)Nc1cccc(-c2cc(F)ccc2CC(c2cccnc2)c2cccnc2)c1 | 
13 | 290 nM | -14% | 7 | O[C@@H](c1cccnc1-c1cccc(C(F)(F)F)c1)C(c1cccnc1)c1cccnc1 | > 30000 nM
14 | 56 nM | 42% |  | Nc1cccc(C(Cc2cccnc2-c2cccc(C(F)(F)F)c2)c2cccnc2)n1 (stereo unspecified) | 
15 | 1280 nM |  |  | Fc1ccc(CC(c2cccnc2)c2cccnc2)c(-c2cccc(C(F)(F)F)c2)c1 | 2230 nM
16 | 276 nM | 16% |  | OC(c1cccnc1-c1cccc(Cl)c1)C(c1cccnc1)c1ncco1 (mixture of isomers) | 
17 | 1590 nM |  |  | CS(=O)(=O)Nc1cccc(-c2cc(F)ccc2CC(c2cccnc2)c2cccnc2)n1 | 
18 | 64 nM | 22% |  | c1cncc(-c2ccccc2CC(c2cccnc2)c2cccnc2)c1 | 
19 | 30 nM | 36% |  | Clc1cccc(-c2ncccc2CC(c2cccnc2)c2cccnc2)c1 | > 30000 nM
20 | 23 nM | 24% |  | Clc1ccccc1-c1ncccc1CC(c1cccnc1)c1cccnc1 | > 30000 nM
21 | 283 nM | 4.1% |  | OC(c1cccnc1-c1cccc(Cl)c1)C(c1cccnc1)c1cccnc1 (racemic) | > 30000 nM
22 | 148 nM | 0.1% | 51 | CC(=O)NC(c1ccccc1-c1cc(Cl)cc(Cl)c1)C(c1cccnc1)c1cccnc1 (stereo unspecified) | > 30000 nM
23 | 133 nM | 77% |  | c1cncc(C(Cc2ccccc2-c2cncc3ccccc23)c2cccnc2)c1 | 12000 nM
24 | 110 nM | -3.3% | 17 | OC(c1cccnc1-c1cccc(Cl)c1Cl)C(c1cccnc1)c1cccnc1 (racemic) | 
25 | > 10000 nM |  |  | Fc1ccc(CC(c2cccnc2)c2cccnc2)c(C2CC2)c1 | 
26 | 26 nM | 80% |  | Clc1ccccc1-c1ncccc1CC(c1cccnc1)c1cccnc1Cl (stereo unspecified) | 
27 | > 10000 nM |  |  | Fc1ccc(CC(c2cccnc2)c2cccnc2)c(-c2cn[nH]c2)c1 | 
28 | 64 nM | 26% |  | CN(C)C(=O)c1cccc(-c2ccccc2CC(c2cccnc2)c2cccnc2)c1 | 
29 | 84 nM | 23% |  | FC(F)(F)c1cccc(-c2ncccc2CC(c2cccnc2)c2cccnc2)c1 | > 30000 nM
